According to the supplement of paper PMC11451515:

Test system: SEM cells
Test: cell viability relative to DMSO control; higher = less cytotoxic
Conditions: 48 h
Method in brief: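 Viability, reported as a per-plate percentage of DMSO wells with cell-free wells as background, came from CellTiter-Glo One luminescence. Reading took place after 48 h at 37°C. Before that, NOMO1 or SEM (500 cells/well) or P12-Ichikawa (1000 cells/well) leukemia cells, adapted for at least four passages in each medium, were seeded in 1536-well plates (5 μl) and pin-dosed with library compounds in DMSO, 47 μM to 0.79 nM over 11 threefold points.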

[1] = HPLM + 10% dialyzed FBS, 0.000781 µM
[2] = HPLM + 10% dialyzed FBS, 0.00234 µM
[3] = HPLM + 10% dialyzed FBS, 0.00702 µM
[4] = HPLM + 10% dialyzed FBS, 0.0211 µM
[5] = HPLM + 10% dialyzed FBS, 0.0632 µM
[6] = HPLM + 10% dialyzed FBS, 0.19 µM
[7] = HPLM + 10% dialyzed FBS, 0.569 µM
[8] = HPLM + 10% dialyzed FBS, 1.71 µM
[9] = HPLM + 10% dialyzed FBS, 5.12 µM
[10] = HPLM + 10% dialyzed FBS, 15.4 µM
[11] = HPLM + 10% dialyzed FBS, 46.1 µM
[12] = RPMI 5 mM glucose + 10% FBS, 0.000781 µM
[13] = RPMI 5 mM glucose + 10% FBS, 0.00234 µM
[14] = RPMI 5 mM glucose + 10% FBS, 0.00702 µM
[15] = RPMI 5 mM glucose + 10% FBS, 0.0211 µM
[16] = RPMI 5 mM glucose + 10% FBS, 0.0632 µM
[17] = RPMI 5 mM glucose + 10% FBS, 0.19 µM
[18] = RPMI 5 mM glucose + 10% FBS, 0.569 µM
[19] = RPMI 5 mM glucose + 10% FBS, 1.71 µM
[20] = RPMI 5 mM glucose + 10% FBS, 5.12 µM
[21] = RPMI 5 mM glucose + 10% FBS, 15.4 µM
[22] = RPMI 5 mM glucose + 10% FBS, 46.1 µM
[23] = RPMI 5 mM glucose + 10% dialyzed FBS, 0.000781 µM
[24] = RPMI 5 mM glucose + 10% dialyzed FBS, 0.00234 µM
[25] = RPMI 5 mM glucose + 10% dialyzed FBS, 0.00702 µM
[26] = RPMI 5 mM glucose + 10% dialyzed FBS, 0.0211 µM
[27] = RPMI 5 mM glucose + 10% dialyzed FBS, 0.0632 µM
[28] = RPMI 5 mM glucose + 10% dialyzed FBS, 0.19 µM
[29] = RPMI 5 mM glucose + 10% dialyzed FBS, 0.569 µM
[30] = RPMI 5 mM glucose + 10% dialyzed FBS, 1.71 µM
[31] = RPMI 5 mM glucose + 10% dialyzed FBS, 5.12 µM
[32] = RPMI 5 mM glucose + 10% dialyzed FBS, 15.4 µM
[33] = RPMI 5 mM glucose + 10% dialyzed FBS, 46.1 µM

| Compound | cell viability [1] [%] | cell viability [2] [%] | cell viability [3] [%] | cell viability [4] [%] | cell viability [5] [%] | cell viability [6] [%] | cell viability [7] [%] | cell viability [8] [%] | cell viability [9] [%] | cell viability [10] [%] | cell viability [11] [%] | cell viability [12] [%] | cell viability [13] [%] | cell viability [14] [%] | cell viability [15] [%] | cell viability [16] [%] | cell viability [17] [%] | cell viability [18] [%] | cell viability [19] [%] | cell viability [20] [%] | cell viability [21] [%] | cell viability [22] [%] | cell viability [23] [%] | cell viability [24] [%] | cell viability [25] [%] | cell viability [26] [%] | cell viability [27] [%] | cell viability [28] [%] | cell viability [29] [%] | cell viability [30] [%] | cell viability [31] [%] | cell viability [32] [%] | cell viability [33] [%] |
| --- | --- | --- | --- | --- | --- | --- | --- | --- | --- | --- | --- | --- | --- | --- | --- | --- | --- | --- | --- | --- | --- | --- | --- | --- | --- | --- | --- | --- | --- | --- | --- | --- | --- |
| CCC(C)CCCCC(=O)N[C@@H](CCN)C(=O)NC(C(=O)N[C@H](CCN)C(=O)N[C@@H]1CCNC(=O)C([C@@H](C)O)NC(=O)[C@@H](CCN)NC(=O)[C@@H](CCN)NC(=O)[C@@H](CC(C)C)NC(=O)[C@H](Cc2ccccc2)NC(=O)[C@H](CCN)NC1=O)[C@@H](C)O (stereo partly specified) | 81.6 | 85.8 | 94 | 94.3 | 100 | 92.9 | 76.5 | 112 | 109 | 110 | 101 | 104 | 113 | 109 | 109 | 107 | 110 | 90.1 | 108 | 111 | 118 | 108 | 87.1 | 90.9 | 93.2 | 86.1 | 107 | 111 | 49.8 | 103 | 105 | 102 | 118 |
| CCOC(=O)c1c(C)n(C)c2ccc(O)cc12 | 99.8 | 95.8 | 97.6 | 96 | 95.6 | 105 | 97 | 103 | 107 | 113 | 104 | 115 | 121 | 107 | 110 | 101 | 119 | 108 | 120 | 114 | 124 | 111 | 115 | 117 | 106 | 118 | 113 | 95.5 | 106 | 112 | 113 | 117 | 116 |
| O=C(O)c1ccc(O)c2ncc(N3CCOCC3)cc12 | 101 | 117 | 128 | 110 | 103 | 102 | 116 | 99.8 | 73.5 | 99.2 | 11.4 | 106 | 109 | 109 | 115 | 112 | 94.1 | 106 | 99.3 | 65.9 | 84 | 7.59 | 94.8 | 98.4 | 96 | 99.6 | 95 | 86.2 | 99 | 87.4 | 46.4 | 68.9 | 7.27 |
| Cc1cc(Nc2ncc3c(n2)N(C)C(=O)N(c2cc(NC(=O)c4cccc(C(F)(F)F)c4)ccc2C)C3)n(C)n1 | 88 | 105 | 101 | 88.2 | 115 | 82.3 | 50.1 | 17.8 | 10.8 | 5.81 | 3.72 | 101 | 114 | 111 | 95 | 116 | 79.4 | 40.2 | 11.9 | 7.97 | 5.5 | 3.3 | 108 | 117 | 114 | 93.8 | 128 | 81.3 | 41 | 11.5 | 6.61 | 4.65 | 2.51 |
| CC/C=C\C[C@H]1C(=O)CC[C@@H]1CC(=O)OC | 76 | 118 | 130 | 130 | 125 | 118 | 125 | 118 | 113 | 114 | 103 | 60.3 | 109 | 101 | 114 | 109 | 100 | 126 | 102 | 99.3 | 109 | 88.9 | 78 | 112 | 137 | 147 | 153 | 127 | 135 | 120 | 122 | 112 | 120 |
| COCCn1c2c([n+](Cc3cnccn3)c1C)C(=O)c1ccccc1C2=O | 128 | 113 | 123 | 50.7 | 23.5 | 11.2 | 7.74 | 8.7 | 8.71 | 4.23 | 3.41 | 116 | 128 | 114 | 110 | 71.4 | 15.5 | 7.97 | 8.06 | 5.61 | 4.16 | 2.77 | 105 | 132 | 117 | 91.1 | 46.2 | 12.6 | 8.08 | 7.35 | 5.94 | 4.15 | 3.55 |
| CC(C)(N)C(=O)N[C@H](COCc1ccccc1)C(=O)N1CCC2(CC1)CN([S+](C)(=O)[O-])c1ccccc12 |  |  |  |  |  |  |  |  |  |  |  | 124 | 127 | 122 | 155 | 130 | 130 | 139 | 121 | 114 | 91.9 | 36.8 |  |  |  |  |  |  |  |  |  |  |  |
| COc1c(Cl)cc2c([nH]c3cnccc32)c1NC(=O)c1cccnc1C | 100 | 116 | 119 | 92 | 114 | 103 | 118 | 108 | 107 | 103 | 84.8 |  |  |  |  |  |  |  |  |  |  |  | 93.6 | 95.3 | 108 | 97.5 | 110 | 107 | 101 | 125 | 106 | 105 | 90.1 |
| CC(=O)N(C)C1(c2ccccc2)CCN(CCC[C@]2(c3ccc(Cl)c(Cl)c3)CCCN(C(=O)c3ccccc3)C2)CC1 | 120 | 129 | 124 | 116 | 123 | 120 | 74.1 | 14.2 | 11.2 | 9.08 | 7.03 | 109 | 130 | 103 | 126 | 123 | 123 | 78.7 | 9.2 | 6.49 | 6.83 | 4.78 | 109 | 145 | 119 | 128 | 139 | 128 | 133 | 18.4 | 12 | 10.6 | 6.46 |
| CC(C)(N)c1ccc(-c2nc3ccccc3nc2-c2ccccc2)cc1 | 99.5 | 109 | 117 | 100 | 38.5 | 15.5 | 6.7 | 6.11 | 5.5 | 3.11 | 3.57 | 110 | 103 | 93.7 | 36.2 | 12.4 | 7.19 | 5.88 | 5.02 | 4.24 | 2.31 | 3.42 | 99.5 | 106 | 101 | 86.3 | 17.5 | 10 | 6.06 | 4.9 | 4.26 | 2.44 | 3.2 |
| CC(=O)SC[C@@H](C)C(=O)N1CCC[C@H]1C(=O)N[C@@H](Cc1ccccc1)C(=O)O | 116 | 107 | 99.6 | 110 | 115 | 103 | 111 | 106 | 107 | 66.7 | 83.3 | 83.8 | 86.2 | 95.3 | 98.1 | 105 | 97.7 | 110 | 97.2 | 113 | 87.1 | 72.6 | 95.1 | 98.3 | 114 | 104 | 104 | 103 | 107 | 101 | 110 | 101 | 85.7 |
| Cc1c(N)nc([C@H](CC(N)=O)NC[C@@H](N)C(N)=O)nc1C(=O)N[C@H](C(=O)N[C@@H](C)[C@H](O)[C@@H](C)C(=O)N[C@@H](C(=O)NCCc1nc(-c2nc(C(=O)NCCC[S+](C)C)cs2)cs1)[C@@H](C)O)C(O[C@H]1O[C@H](CO)[C@H](O)[C@@H](O)[C@H]1O[C@H]1O[C@H](CO)[C@@H](O)[C@H](OC(N)=O)[C@@H]1O)c1c[nH]cn1 (stereo partly specified) | 110 | 115 | 115 | 113 | 101 | 128 | 121 | 82.9 | 61.9 | 67.2 | 74.2 | 99.2 | 109 | 107 | 114 | 89.7 | 121 | 113 | 61.8 | 64.9 | 29.7 | 17.7 | 89.6 | 110 | 99.3 | 111 | 88.4 | 113 | 91.5 | 81.8 | 54.3 | 16.9 | 14.8 |
| CCc1ccc(OCc2ccccc2C(=O)Nc2ccc3nc(C)cc(N)c3c2)cc1 | 75.2 | 102 | 98.9 | 90.2 | 104 | 117 | 110 | 109 | 26.6 | 11.3 | 8.33 | 98.5 | 102 | 98.9 | 99.3 | 112 | 111 | 122 | 116 | 109 | 20.7 | 7.66 | 94.4 | 107 | 91.4 | 107 | 103 | 114 | 111 | 102 | 111 | 22.1 | 7.91 |
| C=CC(=O)Nc1cc2c(Nc3ccc(F)c(Cl)c3)ncnc2cc1C#CC(C)(C)N1CCN(C)CC1 | 99.3 | 107 | 108 | 114 | 106 | 104 | 92.3 | 87.1 | 17.3 | 4.78 | 2.96 | 112 | 116 | 112 | 118 | 105 | 138 | 103 | 87.7 | 22.2 | 4.92 | 4.19 | 102 | 104 | 95.8 | 97 | 102 | 106 | 107 | 87.7 | 19.3 | 4.98 | 3.49 |
| Nc1ccc(C(=O)c2cc3c(ccc4ccccc43)[nH]2)cc1 |  |  |  |  |  |  |  |  |  |  |  | 118 | 137 | 124 | 130 | 129 | 102 | 109 | 110 | 32.1 | 15.9 | 8.45 | 121 | 130 | 117 | 126 | 138 | 104 | 100 | 95 | 27.9 | 12.1 | 11.3 |
